Patent US11564927B2, “Therapeutic compositions, combinations, and methods of use” (Verastem, Inc., priority 2015, dated 2023)

Key:
[1] = tested on: Primary human CD8+ T-cells; assay: CD8+ T-cell proliferation, BrdU incorporation; type: cell-based; details: 72 hours, anti-CD3/anti-CD28 coated beads, BrdU incorporation (FIG. 1)
Method: Primary human CD8+ T-cells isolated from healthy donor PBMCs were incubated in the presence of anti-CD^3/anti-CD28 coated beads with increasing concentrations of VS-4718 or VS-6063 for 72-hours and assayed for BrdU incorporation as a measure of new DNA synthesis.
CD8+ T cells were isolated from fresh, healthy human PBMCs by negative immunomagnetic bead separation. Purified CD8+ T cells were plated on CD3-coated plates in the presence or absence of VS-4718, VS-6063, or GSK2256098 for 72 hours. Assay wells were pulsed with BrdU for the last 3-4 hours of culture and subjected to a BrdU-incorporation assay for the determination of actively proliferating cells. Data shown in FIG. 5 are presented as fold-change vs. DMSO control wells.

[2] = tested on: syngeneic MC38 colorectal tumors; assay: Survival of mice bearing MC38 colorectal tumors; type: in vivo, mouse
Method: Based on the inhibition of tumor-associated macrophages and enhancement of CD8+ T-cells, potentiation of FAK/PYK2 inhibitors on the anti-tumor efficacy of an anti-PD-1 monoclonal antibody in syngeneic mouse tumor models was investigated. Mice bearing established syngeneic MC38 colorectal tumors were treated with VS-4718 for 5 days before combination treatment with anti-PD1 antibody along with continued VS-4718 administration. Combination of VS-4718 with anti-PD1 extended the median overall survival to 42 days relative to 21, 25 and 28 day median overall survival with vehicle control, single agent anti-PD-1 and single agent VS-4718, respectively (FIG. 2).

Row | Structure (SMILES) | proliferation of CD8+ cytotoxic T-cells [1] | mice still surviving ([2]; day 56, MC38 model) | median overall survival ([2]; mice with established MC38 tumors, VS-4718 for 5 days before combination with anti-PD1 (FIG. 2))
1 | CC(=O)Nc1cccc(-n2c(=O)n(C3CC3)c(=O)c3c(Nc4ccc(I)cc4F)n(C)c(=O)c(C)c32)c1 [trametinib] | potently impair the proliferation | – | –
2 | CNC(=O)c1ccccc1Nc1cc(Nc2ccc(N3CCOCC3)cc2OC)ncc1C(F)(F)F [VS-4718] | stimulate proliferation | no surviving mice | 28 days
3 | Cc1nc(Nc2ncc(C(=O)Nc3c(C)cccc3Cl)s2)cc(N2CCN(CCO)CC2)n1 [dasatinib] | potently impair the proliferation | – | –
